EP0347802B1, “Neurokinin A antagonists” (MERRELL DOW PHARMACEUTICALS INC., priority 1988, dated 1989)
Residues, ends and D or L forms follow the SMILES beside them.

What was measured:
NKA receptor = biological target: T1, NKA receptor (Mesocricetus auratus, UniProt P51144); test: Neurokinin A-induced phosphatidylinositol (PI) turnover in hamster urinary bladder; format: cell-based; settings: for shift of NKA dose-response curve (PI turnover): one experiment in triplicate; for partial agonist activity: test compound alone
T1 construct: from tissue; host or cells: hamster urinary bladder, chopped tissue
T1 sequence (P51144 1-384): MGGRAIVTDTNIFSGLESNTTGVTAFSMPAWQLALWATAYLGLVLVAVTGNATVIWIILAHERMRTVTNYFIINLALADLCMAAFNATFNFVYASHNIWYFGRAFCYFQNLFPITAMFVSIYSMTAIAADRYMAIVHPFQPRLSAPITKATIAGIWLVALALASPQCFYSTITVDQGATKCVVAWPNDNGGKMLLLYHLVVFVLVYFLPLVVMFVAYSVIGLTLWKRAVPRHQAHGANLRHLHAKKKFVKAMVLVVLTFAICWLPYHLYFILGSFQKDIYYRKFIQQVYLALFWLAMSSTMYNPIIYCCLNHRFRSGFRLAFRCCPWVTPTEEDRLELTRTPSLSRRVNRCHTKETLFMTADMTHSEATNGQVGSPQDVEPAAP
From the text: The abscissa (x-axis) logarithmically indicates the concentration in nanomoles of agonist or antagonist of the neurokinin A (NKA) receptor. […] The abscissa (x-axis) logarithmically indicates the concentration in nanomolar (nM) of agonist or antagonist of the NKA receptor. […] The abscissa (x-axis) logarithmically indicates the concentration in nanomolar (nM) of agonist or antagonist of the NKA receptor. […])]Leu-NH2 up to 100»M had only 5% partial agonist activity, and […] had only 12% partial agonist activity. […] Values are MEAN ± S.E.M. from one experiment in triplicate. Urinary bladders from several hamsters were pooled and chopped at 350 »m with a tissue chopper. The chopped tissue was then incubated in 37°C Krebs-Hepes buffer with fresh buffer changes every 15 minutes for 30 minutes. The tissue was then incubated in this buffer containing 100-200 »Ci of 3H-inositol at 37°C. The tissue was then washed and incubated for another 30 minutes in Krebs-Hepes (containing 10 mM Li+) at 37°C with fresh buffer change every 15 minutes. Portions of the tissue mass (approximately 10-20 mg per assay tube) were then placed in Li+ buffer, test compound was then added in 25 »l, and then various concentrations of neurokinin A were added in 25 »l in a final volume of 250 »l. […] Test compound was also evaluated alone at the indicated concentrations to test for agonist activity. After 30 minutes at room temperature, the phosphatidylinositol turnover was terminated by the addition of 940 »l chloroform:methanol (1:2), followed by 310 »l chloroform, followed by 310 »l water. Each tube was then vortexed for 15 seconds and then centrifuged at 3000 rpm for 10 minutes to separate the phases. 900 »l of the top (aqueous) phase was then loaded onto a 0.5 ml Biorad AG-1X8 (formate) ion exchange column. 50 »l of the bottom phase (chloroform) was withdrawn from each tube and placed in a counting vial, dried, and counted in scintillation fluid. The material on the columns was washed in order with: • 1) 10 ml of water • 2) 5 ml of 5 mM disodium tetraborate/60 mM sodium formate • 3) 10 ml of 1 M ammonium formate in 0.1 M formic acid The final (third) wash was collected and one ml was mixed with 6 ml of ACS scintillant and counted. The ratio of these counts (total inositol phosphates) to the corresponding organic phase counts was then calculated for each sample. The ratios in the presence of test compound and/or standards were then compared to the ratios for control tubes (i.e., no stimulating agonist). Dose-response curves were constructed and the abilities of test compounds to stimulate or to inhibit neurokinin A-induced phosphatidylinositol turnover were determined by graphical analysis or with the aid of a computer program and are illustrated in Figures 2 and 3.

hamster urinary bladder = test: Hamster urinary bladder contraction preparation; design: species or system male golden Syrian hamsters; settings: for effect on NKA-mediated contractile activity: NKA with 10 »M of test compound, one experiment in triplicate; for contraction produced by test compound alone: up to concentrations of 1 »M, three separate hamster bladder tissues each, thiorphan 10 »M
From the text: The abscissa (x-axis) logarithmically indicates the concentration in nanomoles of agonist or antagonist of the neurokinin A (NKA) receptor. The ordinate (y-axis) indicates the observed specific binding for each tested agonist or antagonist measured as a percentage of maximum specific binding. [formula] Agonists tested were NKA and fragments of NKA consisting of the third to tenth (NKA(3-10)) amino acids and the fourth to tenth (NKA(4-10)) amino acids. Values are MEAN ± S.E.M. of 6 - 12 experiments. […] The abscissa (x-axis) logarithmically indicates the concentration in nanomolar (nM) of agonist or antagonist of the NKA receptor. […] The abscissa (x-axis) logarithmically indicates the concentration in nanomolar (nM) of agonist or antagonist of the NKA receptor. […] H-Asp-Ser-Phe-Val-Gly-Leuψ[CH₂N(CH₃)]Leu-NH₂ up to 100»M had only 5% partial agonist activity, and H-Asp-Ser-Phe-Val-Gly-Leuψ[CH₂NH]Leu-NH₂ had only 12% partial agonist activity. […] The abscissa (x-axis) logarithmically indicates the concentration in nanomolar (nM) of NKA or NKA with 10 »M of H-Asp-Ser-Phe-Val-Gly-Leuψ[CH₂NH]Leu-NH₂. […] The abscissa (x-axis) logarithmically indicates the concentration in nanomolar (nM) of NKA or NKA with 10 »M of H-Asp-Ser-Phe-Val-Gly-Leuψ[CH₂N(CH₃)]Leu-NH₂. Values are MEAN ± S.E.M. from one experiment in triplicate.
Half-strips of urinary bladders from male golden Syrian hamsters (75 - 100 g) were suspended in Tyrode's buffer at 31°C and with 1 gram resting tension as described by Dion et al. (Life Sciences 41: 2269 - 2278, 1987). The enkephalinase inhibitor thiorphan was added to the buffer at 10 »M 15 minutes prior to each test compound addition. Cumulative NKA dose-response curves were constructed first in the absence and then in the presence of test compound. The test compounds were added cumulatively as well to ascertain whether or not they had any contractile effects themselves. Any test compound effect that was observed was allowed to plateau before the next cumulative concentration was added. Under these conditions, the EC₅₀ for NKA contractile effects was generally 10 nM, in good agreement with literature values. Contractile data are expressed as grams of tension developed over and above the resting tension. […] Figures 4 and 5 illustrate the contractile force as a function of NKA concentration in the absence and presence of test compound.

Row | partial agonist activity (NKA receptor) | SMILES | shift of NKA dose-response curve (PI turnover) (NKA receptor; 1, 10 and 100 »M test compound) | Kb (NKA receptor; Schild plot of NKA dose-response shifts at 1, 10 and 100 »M, read-out: pA2 (converted)) | slope of the Schild plot (NKA receptor; from NKA dose-response shifts at 1, 10 and 100 »M) | partial agonist activity (NKA receptor; up to 100»M) | effect on NKA-mediated contractile activity (hamster urinary bladder) | contraction produced by test compound alone (hamster urinary bladder) | shift of NKA dose-response curve (PI turnover) (NKA receptor; 10 »M test compound)
1 | – | CC(C)C[C@@H](CN(C)[C@@H](CC(C)C)C(N)=O)NC(=O)CNC(=O)[C@@H](NC(=O)[C@H](Cc1ccccc1)NC(=O)[C@H](CO)NC(=O)[C@@H](N)CC(=O)O)C(C)C [H-Asp-Ser-Phe-Val-Gly-Leuψ[CH₂N(CH₃)]Leu-NH₂] (HELM PEPTIDE1{D.S.F.V.G.[CC(C)C[C@@H](CN(C)[C@@H](CC(C)C)C(N)=O)N[*:1]]}$$$$V2.0) | significant rightward shift of NKA dose-response curve in competitive manner | 21.9 nM | -.99 | 5% | antagonistic effect | did not produce any contraction | –
2 | 12% | CC(C)C[C@@H](CN[C@@H](CC(C)C)C(N)=O)NC(=O)CNC(=O)[C@@H](NC(=O)[C@H](Cc1ccccc1)NC(=O)[C@H](CO)NC(=O)[C@@H](N)CC(=O)O)C(C)C [H-Asp-Ser-Phe-Val-Gly-Leuψ[CH₂NH]Leu-NH₂] (HELM PEPTIDE1{D.S.F.V.G.[CC(C)C[C@@H](CN[C@@H](CC(C)C)C(N)=O)N[*:1]]}$$$$V2.0) | – | – | – | – | antagonistic effect | did not produce any contraction | significant rightward shift of NKA dose-response curve in competitive manner
